Measurements reported in patent US20220228172A1 (priority 2019, published 2022).
Entries after “also recorded” stand apart in the source; their conditions may differ.

Legend:
Type in all cases: cell-based, vesicular stomatitis virus
VSV-L-Prot [1] = test system: VSV-L-Prot
VSV-P-prot [2] = test system: VSV-P-prot
VSV-P-prot [3] = test system: VSV-P-prot; remark: listed apart in the source
[4] = test system: VSV-GFP-Prot-L (VSV-Prot-Off)
[5] = test system: standard recombinant VSV without P-prot control mechanism
VSV-L-Prot [6] = test system: VSV-L-Prot; remark: listed apart in the source
VSV-ΔP-RFP = test system: VSV-ΔP-RFP
VSV-GP-Luc-IL12-Prot-Off = test system: VSV-GP-Luc-IL12-Prot-Off
VSV-GP-TM-IL12-Prot-Off = test system: VSV-GP-TM-IL12-Prot-Off
VSV-GP-IL12 = test system: VSV-GP-IL12
VSV-GP-IL12-Prot-Off = test system: VSV-GP-IL12-Prot-Off

CC(C)(C)NC(=O)[C@@H]1CN(Cc2cccnc2)CCN1C[C@@H](O)C[C@@H](Cc1ccccc1)C(=O)N[C@H]1c2ccccc2C[C@H]1O [indinavir]
VSV-L-Prot replication in presence of protease inhibitor (VSV-L-Prot [1]): replicates to high titers in its presence
viral gene expression (GFP signal) of VSV-P-prot (VSV-P-prot [2]): facilitated
viral replication (plaque formation) of VSV-P-prot (VSV-P-prot [2]): facilitated

CC(C)CN(C[C@@H](O)[C@H](Cc1ccccc1)NC(=O)O[C@H]1CCOC1)S(=O)(=O)c1ccc(N)cc1 [amprenavir]
VSV-L-Prot replication in presence of protease inhibitor (VSV-L-Prot [1]): replicates to high titers in its presence
VSV-P-prot activity at doses above the plateau (VSV-P-prot [3]): deteriorated at higher doses
amprenavir dose at which VSV-P-prot activity started (VSV-P-prot [3]): 100 nM
APV dose at which VSV-Prot-OFF activity started to decrease [4]: 30 nM
amprenavir concentration at which VSV-GFP-Prot-L activity started to decline [4]: 1 µM
amprenavir concentrations at which VSV-GFP-Prot-L activity was high [4]: 0 to 300 nM
effect on VSV-GFP-Prot-L activity (GFP expression, plaque assays) [4]: stop of virus activity
viral gene expression (GFP signal) of VSV-P-prot (VSV-P-prot [2]): strong GFP signal within 24 hours in the presence but not in the absence
viral replication (plaque formation) of VSV-P-prot (VSV-P-prot [2]): protease inhibitor-dependent
effect of amprenavir on viral replication of standard recombinant VSV [5]: not affected
amprenavir dose at which VSV-L-prot activity started (VSV-L-Prot [6]): 100 nM
amprenavir dose of maximum VSV-L-prot activity (VSV-L-Prot [6]): 30 µM
RFP signal in VSV-ΔP-RFP infected cells (VSV-ΔP-RFP): only detectable in the presence of P196PR2 and a specific HIV protease inhibitor

COC(=O)N[C@H](C(=O)N[C@@H](Cc1ccccc1)[C@@H](O)CN(Cc1ccc(-c2ccccn2)cc1)NC(=O)[C@@H](NC(=O)OC)C(C)(C)C)C(C)(C)C [atazanavir]
virus titer of VSV-GP-Luc-IL12-Prot-Off with and without linker (VSV-GP-Luc-IL12-Prot-Off): inversely correlated
virus titer of VSV-GP-TM-IL12-Prot-Off (-w/ol, -fl) (VSV-GP-TM-IL12-Prot-Off): inversely correlated
virus titer of VSV-GP-IL12 (VSV-GP-IL12): uneffected

CC(C)(C)NC(=O)[C@@H]1C[C@@H]2CCCC[C@@H]2CN1C[C@@H](O)[C@H](Cc1ccccc1)NC(=O)[C@H](CC(N)=O)NC(=O)c1ccc2ccccc2n1 [saquinavir]
IL12 expression in supernatant (ELISA) (VSV-GP-Luc-IL12-Prot-Off): inversely correlated
VSV-L-Prot replication in presence of protease inhibitor (VSV-L-Prot [1]): replicates to high titers in its presence
inhibition of VSV-GFP-Prot-L replication [4]: even stronger inhibition of virus replication than amprenavir; also recorded: strongest suppression of viral replication
virus titer of VSV-GP-IL12-Prot-Off with and without linker (VSV-GP-IL12-Prot-Off): dependent on the presence and concentration; also recorded: inversely correlated
viral gene expression (GFP signal) of VSV-P-prot (VSV-P-prot [2]): facilitated
viral replication (plaque formation) of VSV-P-prot (VSV-P-prot [2]): facilitated

Cc1cccc(C)c1OCC(=O)N[C@@H](Cc1ccccc1)[C@@H](O)C[C@H](Cc1ccccc1)NC(=O)[C@H](C(C)C)N1CCCNC1=O [lopinavir]
regulation of VSV-P-prot (data not shown) (VSV-P-prot [2]; 10 μM): shown to regulate VSV-P-prot
